“Also recorded” adds a separate entry of the source. Read-outs that look alike come from different tables or passages of the source.
Key:
[1] = tested on: parathyroid cell calcium receptor; type: cell-based; conditions: for response of bovine parathyroid cells or Xenopus oocytes expressing calcium receptors to mGluR agonists: bovine parathyroid cells or calcium receptor-expressing Xenopus oocytes; for mobilization of intracellular Ca2+: 500 μM
Procedure: For example, bovine parathyroid cells loaded with fura-2 are initially suspended in buffer containing 0.5 mM CaCl2. A test substance is added to the cuvette in a small volume (5-15 μl) and changes in the fluorescence signal are measured. Cumulative increases in the concentration of the test substance are made in the cuvette until some predetermined concentration is achieved or no further changes in fluorescence are noted.
This section describes procedures used to obtain and treat parathyroid cells from calves and humans. […] Human parathyroid glands, were obtained from patients undergoing surgical removal of parathyroid tissue for primary or uremic hyperparathyroidism (uremic HPT), and were treated similarly to bovine tissue.
Glands were trimmed of excess fat and connective tissue and then minced with fine scissors into cubes approximately 2-3 mm on a side. Dissociated parathyroid cells were prepared by collagenase digestion and then purified by centrifugation in Percoll buffer. The resultant parathyroid cell preparation was essentially devoid of red blood cells, adipocytes, and capillary tissue as assessed by phase contrast microscopy and Sudan black B staining. Dissociated and purified parathyroid cells were present as small clusters containing 5 to 20 cells.
(§1) The cells were then pelleted, resuspended in the same buffer, but lacking the ester, and incubated a further 15 minutes at 37° C. The cells were subsequently washed twice with PCB containing 0.5 mM CaCl2 and 0.5% BSA and maintained at room temperature (about 20° C.). Immediately before use, the cells were diluted five-fold with prewarmed 0.5 mM CaCl2 -PCB to obtain a final BSA concentration of 0.1%. The concentration of cells in the cuvette used for fluorescence recording was 1-2×10^6 /ml.
(§2) The fluorescence of indicator-loaded cells was measured at 37° C. in a spectrofluorimeter (Biomedical Instrumentation Group, University of Pennsylvania, Philadelphia, Pa.) equipped with a thermostated cuvette holder and magnetic stirrer using excitation and emission wavelengths of 340 and 510 nm, respectively. […] Leakage of dye is dependent on temperature and most occurs within the first 2 minutes after warming the cells in the cuvette. Dye leakage increases only very slowly thereafter. To correct the calibration for dye leakage, cells were placed in the cuvette and stirred at 37° C. for 2-3 minutes. The cell suspension was then removed, the cells pelleted, and the supernatant returned to a clean cuvette. […] This estimate was subtracted from the apparent Fmin.
Dissociated bovine parathyroid cells were purified on gradients of Percoll and cultured overnight in serum-free medium.

[2] = target: T1, bovine parathyroid cell calcium receptor (BoPCaR 1) (Bos taurus, UniProt P35384); assay: Cl- current in Xenopus oocytes expressing BoPCaR 1; type: cell-based
T1 construct: Xenopus oocytes were injected with BoPCaR 1, the 5.3 Kb cDNA encoding a bovine parathyroid cell calcium receptor; expressed in transfected cells; host or cells: Xenopus laevis oocytes injected with cRNA/cDNA of BoPCaR 1
T1 sequence (P35384 20-1085): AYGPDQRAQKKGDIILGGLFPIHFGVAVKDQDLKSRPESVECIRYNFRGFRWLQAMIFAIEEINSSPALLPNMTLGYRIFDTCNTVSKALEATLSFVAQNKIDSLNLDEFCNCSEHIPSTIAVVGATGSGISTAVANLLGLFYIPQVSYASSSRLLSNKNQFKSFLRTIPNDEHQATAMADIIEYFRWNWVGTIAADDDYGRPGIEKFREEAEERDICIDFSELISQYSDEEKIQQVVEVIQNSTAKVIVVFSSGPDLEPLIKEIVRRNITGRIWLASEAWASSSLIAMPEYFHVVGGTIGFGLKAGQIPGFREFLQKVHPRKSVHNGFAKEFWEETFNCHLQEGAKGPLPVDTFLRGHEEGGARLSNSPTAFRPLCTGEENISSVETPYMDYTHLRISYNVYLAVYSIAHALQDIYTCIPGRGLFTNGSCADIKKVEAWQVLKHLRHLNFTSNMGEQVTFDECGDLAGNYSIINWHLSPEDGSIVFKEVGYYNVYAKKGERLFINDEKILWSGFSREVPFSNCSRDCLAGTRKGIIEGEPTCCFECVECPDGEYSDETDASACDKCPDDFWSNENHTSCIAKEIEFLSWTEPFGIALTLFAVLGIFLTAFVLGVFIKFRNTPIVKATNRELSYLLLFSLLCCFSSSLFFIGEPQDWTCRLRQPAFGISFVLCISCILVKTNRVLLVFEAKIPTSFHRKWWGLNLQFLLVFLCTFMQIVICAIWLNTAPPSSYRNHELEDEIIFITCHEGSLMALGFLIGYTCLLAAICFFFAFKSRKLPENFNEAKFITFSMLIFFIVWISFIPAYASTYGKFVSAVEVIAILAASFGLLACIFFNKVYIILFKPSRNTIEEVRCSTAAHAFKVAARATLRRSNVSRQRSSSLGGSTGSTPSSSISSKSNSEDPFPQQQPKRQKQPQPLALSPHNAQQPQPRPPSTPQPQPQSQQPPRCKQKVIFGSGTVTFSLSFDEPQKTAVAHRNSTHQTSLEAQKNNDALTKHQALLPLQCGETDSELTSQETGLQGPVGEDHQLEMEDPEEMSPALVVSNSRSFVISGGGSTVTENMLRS
Procedure: Following incubation, an oocyte was placed into a 100-μl plastic chamber and superfused with MBS at a flow rate of 0.5 ml/min using a peristaltic pump. Test molecules or inorganic polycations were added by rapidly moving the tubing into different buffers. Recording and current-passing electrodes were constructed from thin-wall capillary tubing pulled to a resistance of 1-3 Mohms and filled with 3M KCl. […] Currents were recorded directly onto a strip chart recorder.
The techniques used to clone the parathyroid calcium receptor are briefly described in this example; a more complete description of the techniques is provided in preceding sections, which describe techniques which may be used to clone additional forms of the Ca^2+ -receptor from other cell types. Poly(A^+)-enriched mRNA was initially prepared from bovine parathyroid glands by extracting with guanidinium thiocyanate, centrifugation through CsCl and oligo(dT) cellulose chromatography. […] No such currents were elicited in control eggs injected with water.
These responses are mediated by the following series of biochemical events:
Xenopus oocytes were injected with BoPCaR 1, the 5.3 Kb cDNA encoding a bovine parathyroid cell calcium receptor as described in Example 25. After two to three days, Cl^- currents were examined in the oocytes using a two-electrode voltage clamp.
Xenopus oocytes were injected with BoPCaR 1 as described in Example 25. After two to three days, Cl^- currents were examined in the oocytes using two electrode voltage clamp.

net positive charge = type: physicochemical
[3] = tested on: increases in [Ca2+]i elicited by extracellular Ca2+ in bovine parathyroid cells; assay: block of extracellular Ca2+-induced [Ca2+]i increase / Ca2+ influx in bovine parathyroid cells; type: cell-based
Procedure: as §1, §2

N[C@@]1(C(=O)O)CC[C@@H](C(=O)O)C1 (relative stereo) [trans-ACPD]
response of bovine parathyroid cells or Xenopus oocytes expressing calcium receptors to mGluR agonists [1]: did not respond

CC1=C(C(=O)OC(C)C)C(c2cccc3nonc23)C([N+](=O)[O-])=C(C)N1 (single isomer, unassigned; (+)) [(+) 202-791]
effect on basal [Ca2+]i or increases evoked by extracellular Ca2+ ([1]; 1 μM): None

CC1=C(C(=O)OC(C)C)C(c2cccc3nonc23)C([N+](=O)[O-])=C(C)N1 (single isomer, unassigned; (-)) [(-) 202-791]
effect on basal [Ca2+]i or increases evoked by extracellular Ca2+ ([1]; 1 μM): None

O=C(O)c1c2ccccc2cc2ccccc12 [9AC]
effect on activated chloride currents [2]: blocks the currents

CNc1ccc2oc(C[C@H]3O[C@@]4(CC[C@H]3C)O[C@H]([C@H](C)C(=O)c3ccc[nH]3)[C@H](C)C[C@H]4C)nc2c1C(=O)O [A23187]
effect on activated chloride currents [2]: activated

N=C(N)NCCC[C@H](N)C(=O)NCCCNCCCNCCCCCNC(=O)[C@H](CC(N)=O)NC(=O)Cc1ccc(O)cc1O [Argiotoxin-636]
increase in [Ca2+]i (words) ([1]; 400 μM): did not elicit increases
potentiation of cytosolic Ca2+ response to extracellular Ca2+ ([1]; 400 μM): did potentiate cytosolic
increase in [Ca2+]i (words) ([1]; tested at concentrations similar to 100 to 300 μM): had no effect
net positive charge (net positive charge): +4

N=C(N)NCCC[C@H](N)C(=O)NCCCNCCCNCCCCCNC(=O)[C@H](CC(N)=O)NC(=O)Cc1c[nH]c2cccc(O)c12 [Argiotoxin-659]
concentrations evoking transient increases in [Ca2+]i ([1]; bovine parathyroid cells): 100 to 300 µM
EC50 ([1]; read-out: EC50 (Table 1), parathyroid cells, screened as in Example 1): 300 µM
EC50 ([1]; read-out: EC50 for mobilization of intracellular Ca2+, bovine parathyroid cells): 300 µM
Net (+) Charge (Table 1) (net positive charge): +4
net positive charge (net positive charge): +4

COC(=O)C1=C(C)NC(C)=C([N+](=O)[O-])C1c1ccccc1C(F)(F)F (stereo not drawn) [BAY K 8644]
effect on basal [Ca2+]i or increases evoked by extracellular Ca2+ ([1]; 1 μM): None

NC[C@H]1O[C@H](O[C@H]2[C@H](O)[C@@H](O[C@H]3O[C@H](CO)[C@@H](O)[C@H](N)[C@H]3O)[C@H](N)C[C@@H]2N)[C@H](N)[C@@H](O)[C@@H]1O [Bekanamycin]
EC50 ([1]; read-out: EC50 for mobilization of intracellular Ca2+ (Table 4), screened as in Example 1): 200 µM
Net (+) Charge (Table 1) (net positive charge): +5
net positive charge (net positive charge; pH 7.3): +5

NCCCCCN [Cadaverine, cadaverine]
net positive charge (net positive charge): +2

COc1ccc(CCN(C)CCCC(C#N)(c2cc(OC)c(OC)c(OC)c2)C(C)C)cc1OC [D-600]
potentiation of mobilization of intracellular Ca2+ elicited by extracellular divalent cations ([1]; 100 μM): potentiated the mobilization of intracellular
change in [Ca2+]i ([1]; 100 μM, 0.5 mM extracellular Ca2+): evoked no change
increase in [Ca2+]i at intermediate extracellular Ca2+ ([1]; 100 μM, 1-[…] extracellular Ca2+): small, but robust increase
block of influx of extracellular Ca2+ ([3]; 100 μM): blocked the influx of extracellular

O=C(O)CN(CCOCCOCCN(CC(=O)O)CC(=O)O)CC(=O)O [EGTA]
effect on inward currents to Gd3+ ([2]; EGTA 100 μM, Gd3+ 600 μM): prevents oocytes expressing the calcium receptor from responding

NC[C@H]1O[C@H](O[C@H]2[C@H](O)[C@@H](O[C@H]3O[C@H](CO)[C@@H](O)[C@H](N)[C@H]3O)[C@H](N)C[C@@H]2N)[C@H](O)[C@@H](O)[C@@H]1O [Kanamycin]
mobilization of intracellular Ca2+ [1]: without effect
net positive charge (net positive charge; pH 7.3): ~+4.5

CCC[C@@H]1C[C@@H](C(=O)N[C@@H]([C@H]2O[C@H](SC)[C@H](O)[C@@H](O)[C@H]2O)[C@@H](C)O)N(C)C1 [Lincomycin]
mobilization of intracellular Ca2+ [1]: without effect
net positive charge (net positive charge; pH 7.3): +1

NCCCCCCCCCCCCNC(=O)Cc1ccc(O)cc1O [NPS 021]
change in [Ca2+]i by compound alone ([1]; 0.5 mM Ca2+): caused no change; also recorded: does not by itself cause any change
effect on increase in [Ca2+]i elicited by extracellular Ca2+ ([3]; 200 μM, [Ca2+] 0.5 to 2 mM): inhibited the increase
IC50 ([3]; Bos taurus, fura-2 loaded bovine parathyroid cells, read-out: IC50 for blocking increase in [Ca2+]i elicited by extracellular Ca2+): ~200 µM
increase in [Ca2+]i evoked by extracellular Ca2+ ([3]; around 500 μM): abolished

NCCCN(CCCN)CCCN(CCCN)CCCCN(CCCN)CCCN(CCCN)CCCN [NPS 381, N^1,N^1,N^5, N^10,N^14, N^14-hexakis-(3-aminopropyl) spermine]
Net (+) Charge (Table 1) (net positive charge): +10

NCCCN(CCCN)CCCNCCCCNCCCN(CCCN)CCCN [NPS 382, N^1,N^1,N^5,N^14, N^14-tetrakis-(3-aminopropyl)spermine]
Net (+) Charge (Table 1) (net positive charge): +8

NCCCN1CCCN(CCCN)CCN(CCCN)CCCN(CCCN)CC1 [NPS 383]
Net (+) Charge (Table 1) (net positive charge): +8

COc1ccc(CC(=O)NCCCCCCCCCCCCN)cc1OC [NPS 384]
increase in [Ca2+]i (words) ([1]; 300 μM): did not evoke an increase
block of influx of extracellular Ca2+ ([3]; 300 μM): blocked influx of extracellular
effect of pretreatment on increases in [Ca2+]i elicited by extracellular Ca2+ ([3]; 100 to 1000 μM): depresses steady-state, but not transient increases
fall in [Ca2+]i ([3]; 100 to 1000 μM, buffer containing 2 mM CaCl2): prompt fall

COc1cccc([C@H](C)NCCCc2ccccc2Cl)c1 [NPS S-568]
concentration eliciting responses ([2]; BoPCaR 1-injected oocytes): 100 µM

CCCC(=O)N[C@@H](Cc1ccc(O)cc1)C(=O)NCCCCNCCCNCCCN [Philanthotoxin-433]
mobilization of intracellular Ca2+ [1]: without effect
net positive charge (net positive charge): +3

NCCCCN [Putrescine]
net positive charge (net positive charge): +2

C[C@@H](NCCC(c1ccccc1)c1ccccc1)c1ccccc1 [R-Fendiline]
EC50 ([1]; bovine parathyroid cells, fura-2, read-out: EC50 PARATHYROID (Table 6)): 9 µM

[H]/N=C(/N)N[C@H]1[C@H](O)[C@@H](O)[C@H](O[C@@H]2O[C@@H](C)[C@](O)(C=O)[C@H]2O[C@@H]2O[C@@H](CO)[C@H](O)[C@@H](O)[C@@H]2NC)[C@@H](N/C(N)=N\[H])[C@@H]1O [Streptomycin]
EC50 ([1]; parathyroid cells, screened as in Example 1, read-out: EC50 (Table 1)): 600 µM
Net (+) Charge (Table 1) (net positive charge): +3
net positive charge (net positive charge; pH 7.3): +3

NCCNCCNCCNCCN [Tetraethylenepentamine (TEPA), Tetraethylenepentamine]
Net (+) Charge (Table 1) (net positive charge): +5

NCCNCCNCCN [Triethylenetramine (TETA), triethylenetetramine]
Net (+) Charge (Table 1) (net positive charge): +4

CC(NCCCc1ccccc1)c1ccccc1 (stereo not drawn) [compound 1D]
relative potency ([1]; vs R-fendiline): nearly as potent as the parent molecule

COc1ccc([C@@H]2Sc3ccccc3N(CCN(C)C)C(=O)[C@@H]2OC(C)=O)cc1 [diltiazem]
effective concentration, like verapamil and D-600 [1]: 100 µM

N[C@@H](CCC(=O)O)C(=O)O [glutamate]
response of bovine parathyroid cells or Xenopus oocytes expressing calcium receptors to mGluR agonists [1]: did not respond

COc1cccc(C(C)NCCC(c2ccccc2)c2ccccc2)c1 (stereo not drawn) [meta-Methoxyfendiline]
relative potency ([1]; vs NPS 467): as potent as NPS 467

COC(=O)C1=C(C)NC(C)=C(C(=O)OC)C1c1ccccc1[N+](=O)[O-] [nifedipine]
effect on basal [Ca2+]i or increases evoked by extracellular Ca2+ [1]: None

CCOC(=O)C1=C(C)NC(C)=C(C(=O)OC)C1c1cccc([N+](=O)[O-])c1 (stereo not drawn) [nitrendipine]
effect on basal [Ca2+]i or increases evoked by extracellular Ca2+ ([1]; 1 μM): None

N[C@@H](Cn1oc(=O)[nH]c1=O)C(=O)O [quisqualate]
response of bovine parathyroid cells or Xenopus oocytes expressing calcium receptors to mGluR agonists [1]: did not respond

COc1ccc(CCN(C)CCCC(C#N)(c2ccc(OC)c(OC)c2)C(C)C)cc1OC (stereo not drawn) [verapamil]
block of influx of extracellular Ca2+ ([3]; 100 μM): blocked the influx of extracellular

Gentamicin
Net (+) Charge (Table 1) (net positive charge): +5
net positive charge (net positive charge; pH 7.3): +5

Source: patent publication US5858684A, “Method of screening calcium receptor-active molecules” (priority 1995, dated 1999)
